The subject of assay [1] is ZKO organoids. The assay can be described thus: Interferon response of PKCζ-deficient (ZKO) small intestine organoids (3D culture). Type of assay: cell-based, mouse. Conditions: 3 μM for 24 hours then drug-free culture, qRT-PCR. Here is the method:
(§1) For generation of small intestine organoids, organoids were collected in ice-cold TrypLE solution (e.g., Life Technologies) to remove Matrigel, then pipetted 5 cycles and incubated 5 min at 37° C. to obtain single-cell suspension. Cells were washed twice in PBS 3% FBS and resuspended at room temperature with PBS with 100 μg/ml DNase I for 10 min before staining with anti-H-2Kb (clone AF6-88.5.5.3; eBioscience). For antigen presentation in MODE-K cells, cells were washed in PBS, trypsinized and wash with warm medium. Then, cells were resuspended and stained with anti-H-2Kk (clone 36-7-5; BioLegend) and anti-H-2Dk (clone 15-5-5; BD Pharmingen). Dead cells were excluded after 7-AAD staining. All flow cytometry experiments were performed on a BD LSRFortessa 14-colors analyzer at the Sanford Burnham Prebys Medical Discovery Institute Shared FACS Facility and flow cytometry data were analyzed using FlowJo software (Tree Star Inc.).
(§2) Intestinal epithelial cell (IEC) isolation was performed as described previously Llado et al., Repression of Intestinal Stem Cell Function and Tumorigenesis through Direct Phosphorylation of β-catenin and Yap by PKCζ. Cell Reports (2015) 10, 740-754, with some modification. […] Adenoma fragments were counted after isolation and a total of 250-500 fragments were mixed with 100 μl of growth factor reduced-Matrigel and plated in 12- or 24-well plates. […]

For assay [2], the system named is WT organoids. Briefly: Interferon response of WT small intestine organoids (3D culture). The class given is cell-based, mouse. How it is done:
as §1, §2

Assay [3] concerns serrated tumors of DKO^IEC mice. The assay can be described thus: TGF-βR1-specific inhibition experiment in DKO^IEC mice. Type of assay: in vivo, mouse. How it is done:
For CD8+ T cell depletion (FIG. 4), 10-week-old LKO^IEC mice were injected intraperitoneally with 200 μg of anti-CD8 antibody (clone 2.43) or control IgG twice a week for 5 weeks until they were sacrificed. For the TGF-βR1-specific inhibition experiment, 10-week-old DKO^IEC mice were treated twice a day with a dose of 10 mg of galunisertib (Tauriello et al., 2018) per os for 6 weeks until they were sacrificed. Control mice were treated with vehicle. For checkpoint immunotherapy, either 10-week-old or 13-week-old DKO^IEC mice were injected intraperitoneally with a dose of 10 mg/kg (body mass) of anti-PD-L1 antibody (clone 6E11) twice a week for 3 weeks until they were sacrificed. For the combination therapy of anti-PD-L1 antibody and TGF-βR1-specific inhibitor, 23-week-old DKO^IEC mice were treated twice a day with a dose of 10 mg of galunisertib per os and injected intraperitoneally with a dose of 10 mg/kg (body mass) of anti-PD-L1 antibody twice a week for 3 weeks until they were sacrificed. Anti-PD-L1 antibody was provided by de Sauvage FJ (Genentech).
Organs were isolated, rinsed in ice-cold PBS, fixed in 10% neutral buffered formalin overnight at 4° C., dehydrated, and embedded in paraffin. Sections (5 μm) were stained with hematoxylin and eosin (H&E). For immunohistochemistry, sections were deparaffinized, rehydrated, and then treated for antigen retrieval. After blocking in Protein Block Serum-Free solutions (DAKO), tissues were incubated with primary antibody overnight at 4° C. followed by incubation with biotinylated secondary antibody. Endogenous peroxidase was quenched in 3% H2O2 in water for 10 min at room temperature. Antibodies were visualized with avidin/biotin complex (e.g., Vectastain Elite; Vector Laboratories) using diaminobenzidine as the chromagen. For immunofluorescence, fresh frozen organs were embedded in Tissue-Tek OCT compound (e.g., Sakura) and section of 10 μm were fixed in methanol, washed with PBS and then incubated with the primary antibodies. Washed sections were incubated with Alexa-conjugated secondary antibodies (e.g., Life Technologies) and examined with a Zeiss LSM 710 NLO Confocal Microscope. In situ hybridization for murine Ereg was carried out using RNAscope Multiplex Fluorescent Assay kit (Advanced Cell Diagnostics) following manufacturer's instructions. The probe corresponding to CDS region of murine Ereg (Accession #: NM_007950.2, probe region: 116-1496; Advanced Cell Diagnostics; Cat #: 437981). Cell death was analyzed using the In-Situ Cell Death Detection kit, TMR red (Thermo) for TUNEL. Masson's Trichrome staining was carried out following manufacturer's instructions (Sigma HT15-1KT).
Flow cytometry experiments were performed using fresh small intestinal tissue and organoid preparations. For the analyses of small intestinal tissue, a half part of duodenum, jejunum, and ileum was used for quantitative flow cytometry analysis of immune cell population of lamina propria. Briefly, small intestines were rinsed in cold PBS, minced into small pieces, incubated in HBSS with EDTA (5 mM) and digested with collagenase (0.05 mg/ml) for 30 min at 37° C., followed by a discontinuous Percoll separation method (40 and 75%) to purify immune cells. The cells concentrated at the interface were collected and washed in cold PBS. Red blood cells were removed with lysing buffer (BD Pharm Lyse) and live cells were counted using Trypan blue and then saturated with mouse Fc Block (purified anti-mouse CD16/CD32; 1:50; clone 2.4G2; BD Pharmingen) 30 min at 4° C. before incubating with specific dyed antibodies.
Total RNA from mouse tissues and cultured organoids was extracted using the TRIZOL reagent (e.g., Invitrogen) and the RNeasy Mini Kit (e.g., Qiagen), followed by DNase treatment. […]

Setting [4] is: 10-week-old DKO^IEC mice, 10 mg per os twice a day for 6 weeks.
The mark [5] stands for this setting: 10-week-old DKO^IEC mice, 6 weeks.

As for `Nc1ncn([C@H]2C[C@H](O)[C@@H](CO)O2)c(=O)n1` [5-AZA-CdR, 5-aza-2-deoxycytidine], the “expression of interferon-responsive genes Irf7, Oas1a, Isg15, and Cxcl10” value in assay [1] was “severely abrogated”; in assay [2] (3 μM for 24 hours then drug-free culture, qRT-PCR), “robustly induced”. Further, in assay [2] (flow cytometry), the “MHC class I long-chain H-2K^b on the surface” value is “upregulated”.

Turning to `Cc1cccc(-c2nn3c(c2-c2ccnc4ccc(C(N)=O)cc24)CCC3)n1` [galunisertib], in assay [3] (setting [4]), the tumor load result is listed as “did not reduce”, the tumor number entry is on record as “did not reduce” and the tumor size entry is recorded as “did not reduce”. For the same molecule, in assay [3] (setting [5]), the “incidence of invasive cancer” value is recorded as “especially reduced” and the “progression of SSA/P to the adenocarcinoma stage” value was “suppressed”. In addition, the “proportion of PD-L1^+/CD45^+ cells infiltrating DKO^IEC tumors” value in assay [3] (CD45/PD-L1 staining) is “not affected”. Besides, the collagen deposition entry in assay [3] (Masson's trichrome staining of small intestinal tumors) is “inhibition”. Moreover, in assay [3] (flow cytometry), the “proportion of Th17 cells in the tumors” value is “reduction”. Moreover, in assay [3] (flow cytometry, DKO^IEC tumors), the “proportion of CD8^+ T cells” value was “did not significantly change”, the “proportion of CD11b^+ myeloid cells” value is on record as “did not significantly change” and the “proportion of Treg cells” value is on record as “did not significantly change”. In addition, in assay [3] (qRT-PCR), the “expression of TGF-β-responsive genes, such as Angpt12, Cdkn2b, Il11, and Ereg” value is given as “reduced expression”. Moreover, the “stromal phospho-SMAD2” value in assay [3] (staining of small intestinal tumors) is “inhibition”.

Source of the values: US20220177561A1, “Models and Methods Useful for the Treatment of Serrated Colorectal Cancer” (Sanford Burnham Prebys Medical Discovery Institute, priority 2018, published 2022).
